The values below come from PMC4654502, “Early Gelatinase Activity Is Not a Determinant of Long-Term Recovery after Traumatic Brain Injury in the Immature Mouse” (PLoS ONE, 2015).

Assay [1] concerns controlled cortical impact TBI at p21. The experiment in a line: Three-chamber social approach task at adulthood after TBI at p21. It counts as in vivo, male C57Bl/6J mice. Particulars: 25 mg/kg s.c. at 2, 4, 24, 48 h post-injury. The method, then:
(§1) The controlled cortical impact model of TBI was used as previously described. TBI to the p21 mouse approximates a toddler-aged child, based upon the structural, biochemical and behavioral characteristics of this age. Pups were anaesthetized with 1.25% 2,2,2-tribromoethanol (Avertin; Sigma-Aldrich, St. Louis, MO) in isotonic saline (i.p. bolus at 0.02 mL/g body weight). After craniotomy, mice were subjected to a controlled cortical impact at 4.5 m/s velocity and 1.73 mm depth of penetration, for a sustained depression of 150 ms, using a 3.0 mm convex impactor tip. Mice were maintained on a water-circulating heating pad throughout surgery and recovery. Following impact, the scalp was closed with sutures and each animal administered 0.5 ml of isotonic saline subcutaneously (s.c.) to prevent post-operative dehydration. Sham-operated mice underwent identical surgical procedures, including craniotomy, without receiving the cortical impact. All mice were closely monitored for 1–2 hours post-surgery until return of the righting reflex and full mobilization. Mice were then returned to group-housing, and weighed post-surgery at days 1, 3, and weekly thereafter till the end of the study. […]
The three-chamber paradigm allows for the evaluation of social affiliation and social recognition in mice. […] Data were expressed as time spent in each chamber (% of total time).

For assay [2] the test system is unchanged. The experiment in a line: Open field test at adulthood after TBI at p21. Type of assay: in vivo, male C57Bl/6J mice. Particulars: 25 mg/kg s.c. at 2, 4, 24, 48 h post-injury; tested ~2 months post-injury. The method, then: (§2) The controlled cortical impact model of TBI was used as previously described. TBI to the p21 mouse approximates a toddler-aged child, based upon the structural, biochemical and behavioral characteristics of this age. Pups were anaesthetized with 1.25% 2,2,2-tribromoethanol (Avertin; Sigma-Aldrich, St. Louis, MO) in isotonic saline (i.p. bolus at 0.02 mL/g body weight). After craniotomy, mice were subjected to a controlled cortical impact at 4.5 m/s velocity and 1.73 mm depth of penetration, for a sustained depression of 150 ms, using a 3.0 mm convex impactor tip. Mice were maintained on a water-circulating heating pad throughout surgery and recovery. Following impact, the scalp was closed with sutures and each animal administered 0.5 ml of isotonic saline subcutaneously (s.c.) to prevent post-operative dehydration. Sham-operated mice underwent identical surgical procedures, including craniotomy, without receiving the cortical impact. All mice were closely monitored for 1–2 hours post-surgery until return of the righting reflex and full mobilization. Mice were then returned to group-housing, and weighed post-surgery at days 1, 3, and weekly thereafter till the end of the study.
The treatment regime was based upon several considerations. […]
Exploratory behaviors were assessed over a 10 min session in an automated open field arena (40.6 cm x 40.6 cm; Kinder Scientific, Poway, CA). […]

The subject of the next assay is MMP-9 or MMP-2. The following applies: compared with SB-3CT; cited from earlier work.
A further assay relates to MMP-2. The experiment in a line: Inhibition constant for MMP-2. It counts as biochemical. Particulars: more potent than the parent compound.
The test system of assay [3] is controlled cortical impact TBI at p21. Briefly: Morris water maze at adulthood after TBI at p21. It counts as in vivo, male C57Bl/6J mice. The following applies: 25 mg/kg s.c. at 2, 4, 24, 48 h post-injury. The method, then:
as §2
The treatment regime was based upon several considerations. […] Thirdly, we limited treatment to a period of 48 h post-injury in order to minimize potential off-target effects on ongoing brain development processes at this time, given the known roles that these gelatinases play in postnatal synaptic maturation. For acute studies (gelatin zymography and histology) animals were euthanized at 4 hours and for in situ zymography, they were euthanized 1 hour after the last injection. For long-term studies (behavioral and cognitive assessments and histology) animals were euthanized at ~2 months post-injury. Euthanasia was by overdose with 2.5% Avertin i.p. followed by decapitation or cardiac transperfusion as described below.
Mice were randomized for behavior testing and all behavior testing was performed by individuals blinded to injury and treatment. Behavioral and cognitive testing of brain injured mice and sham controls commenced at 2 months post-injury (~ 3 months of age; n = 15/group). An extensive battery of behavioral assessments was performed in the following order: open field, rotarod, elevated plus maze, three-chamber social task, resident-intruder, and Morris water maze (MWM). […]
The MWM was used to assess spatial learning and memory as previously described, using a 140 cm-diameter circular pool filled with opaque water (22°C). […] Movements were tracked with an overhead mounted video camera interfaced with Noldus EthoVision software (Noldus IT, Tacoma, WA), for quantification of the cumulative distance to and latency to locate the platform, as well as swim velocity (cm/s). […]

Assay [4] shares this test system. Briefly: Elevated plus maze at adulthood after TBI at p21. Type of assay: in vivo, male C57Bl/6J mice. The following applies: 25 mg/kg s.c. at 2, 4, 24, 48 h post-injury; tested ~2 months post-injury. The method, then:
as §1, with “mobilization.” for “mobilization. Mice were then returned to group-housing, and weighed post-surgery at days 1, 3, and weekly thereafter till the end of the study.”
The elevated plus maze (Kinder Scientific, Poway, CA) assesses anxiety based upon the natural tendency of rodents to avoid the open arms in preference for enclosed areas. […] Times spent in the open versus closed arms was assessed as previously described.

As for `O=S(=O)(CC1CS1)c1ccc(Oc2ccc(O)cc2)cc1` (centres unmarked) [p-OH SB-3CT], the “three-chamber task stage 2, preference for sociability” value in assay [1] (groups = injury or drug treatment) was “no overall differences between groups”. Moreover, the “three-chamber task stage 3, lack of preference for social novelty after TBI” value in assay [1] (tested at adulthood) is recorded as “not rescued by p-OH SB-3CT”. Moreover, in assay [2], the “injury-induced hyperactivity (total distance traveled, open field)” value is on record as “did not ameliorate this hyperactivity” and the “percentage time spent in the center of the open field (anxiety-like behavior)” value was “neither TBI nor p-OH SB-3CT treatment affected this measure”. The “residence time (how long the drug is bound to the target MMPs)” value in the assay with MMP-9 or MMP-2 is given as “considerably longer than that of SB-3CT”. Moreover, the “potency at inhibiting MMP-2 relative to parent compound SB-3CT” value with MMP-2 is 5 fold. Besides, the “MWM probe trials, effect of injury on spatial memory retention” value in assay [3] (four probe trials) is reported as “not rescued by acute inhibition of gelatinases with p-OH SB-3CT”. For the same molecule, in assay [3] (tested at adulthood), the “MWM cumulative distance to the target, visible and hidden sessions” value was “no effect of p-OH SB-3CT treatment”; the “MWM latency to reach the platform, visible and hidden platform sessions” value is listed as “did not modify this injury-related behavior”; the “MWM swim velocity during visible platform trials” value is “not influenced”. For the same molecule, the “time spent in the open arms of the elevated plus maze” value in assay [4] is listed as “not affected by either TBI or p-OH SB-3CT treatment”.
